# Results published in ChEMBL document CHEMBL4190253, “Synthesis of novel 5-(aroylhydrazinocarbonyl)escitalopram as cholinesterase inhibitors” (Eur J Med Chem, 2017).
# Assays:
# [1] = Selectivity ratio of IC50 for electric eel AChE to IC50 for equine serum BCHE
# Acetylcholinesterase = Acetylcholinesterase (Electrophorus electricus, UniProt O42275); assay: Inhibition of electric eel AChE using acetylthiocholine iodide as substrate preincubated for 10 mins followed by substrate addition measured after 30 mins by Ellman's method
# Chain of Acetylcholinesterase (O42275 whole entry): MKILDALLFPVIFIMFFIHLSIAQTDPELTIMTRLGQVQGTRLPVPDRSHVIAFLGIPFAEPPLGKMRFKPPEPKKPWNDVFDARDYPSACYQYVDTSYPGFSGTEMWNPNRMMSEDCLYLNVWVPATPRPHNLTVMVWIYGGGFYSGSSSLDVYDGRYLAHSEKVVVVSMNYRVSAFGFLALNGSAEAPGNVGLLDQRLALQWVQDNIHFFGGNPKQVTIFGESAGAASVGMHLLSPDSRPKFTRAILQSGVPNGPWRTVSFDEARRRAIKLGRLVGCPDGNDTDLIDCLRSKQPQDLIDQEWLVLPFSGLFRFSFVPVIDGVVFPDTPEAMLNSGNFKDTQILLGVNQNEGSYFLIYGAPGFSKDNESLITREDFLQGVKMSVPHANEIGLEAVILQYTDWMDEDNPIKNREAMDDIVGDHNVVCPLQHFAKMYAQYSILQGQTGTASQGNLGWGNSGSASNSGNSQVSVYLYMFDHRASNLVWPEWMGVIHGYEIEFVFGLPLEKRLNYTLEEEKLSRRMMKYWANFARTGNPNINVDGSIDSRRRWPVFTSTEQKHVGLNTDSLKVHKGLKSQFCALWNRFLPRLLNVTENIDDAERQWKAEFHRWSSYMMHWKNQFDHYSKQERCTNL
# [2] = biological target: Acetylcholinesterase (Electrophorus electricus) (UniProt O42275); assay: Inhibition of electric eel AChE at 0.5 mM using acetylthiocholine iodide as substrate preincubated for 10 mins followed by substrate addition measured after 30 mins by Ellman's method relative to control
# Chain of Acetylcholinesterase (Electrophorus electricus) (O42275 24-633 limits assumed): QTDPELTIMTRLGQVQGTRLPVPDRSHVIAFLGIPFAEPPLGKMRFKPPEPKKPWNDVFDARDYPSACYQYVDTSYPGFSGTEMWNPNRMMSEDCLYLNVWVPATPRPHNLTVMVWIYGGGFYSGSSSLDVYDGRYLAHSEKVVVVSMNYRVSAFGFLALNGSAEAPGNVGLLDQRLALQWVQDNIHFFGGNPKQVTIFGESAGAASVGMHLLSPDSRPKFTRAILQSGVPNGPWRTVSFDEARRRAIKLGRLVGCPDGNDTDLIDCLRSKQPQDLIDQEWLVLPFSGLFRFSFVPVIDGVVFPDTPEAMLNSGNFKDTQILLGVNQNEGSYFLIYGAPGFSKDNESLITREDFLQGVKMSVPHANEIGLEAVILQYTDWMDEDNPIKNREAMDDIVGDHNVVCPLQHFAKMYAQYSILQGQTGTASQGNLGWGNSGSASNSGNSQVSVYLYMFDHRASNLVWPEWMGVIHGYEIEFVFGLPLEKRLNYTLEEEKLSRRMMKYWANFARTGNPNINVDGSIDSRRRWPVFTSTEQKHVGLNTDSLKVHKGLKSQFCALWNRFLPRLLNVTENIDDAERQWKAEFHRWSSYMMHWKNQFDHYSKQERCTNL
# Cholinesterase = Cholinesterase (Equus caballus, UniProt P81908); assay: Inhibition of equine serum BCHE using butyrylthiocholine iodide as substrate preincubated for 10 mins followed by substrate addition measured after 30 mins by Ellman's method
# Chain of Cholinesterase (P81908 whole entry): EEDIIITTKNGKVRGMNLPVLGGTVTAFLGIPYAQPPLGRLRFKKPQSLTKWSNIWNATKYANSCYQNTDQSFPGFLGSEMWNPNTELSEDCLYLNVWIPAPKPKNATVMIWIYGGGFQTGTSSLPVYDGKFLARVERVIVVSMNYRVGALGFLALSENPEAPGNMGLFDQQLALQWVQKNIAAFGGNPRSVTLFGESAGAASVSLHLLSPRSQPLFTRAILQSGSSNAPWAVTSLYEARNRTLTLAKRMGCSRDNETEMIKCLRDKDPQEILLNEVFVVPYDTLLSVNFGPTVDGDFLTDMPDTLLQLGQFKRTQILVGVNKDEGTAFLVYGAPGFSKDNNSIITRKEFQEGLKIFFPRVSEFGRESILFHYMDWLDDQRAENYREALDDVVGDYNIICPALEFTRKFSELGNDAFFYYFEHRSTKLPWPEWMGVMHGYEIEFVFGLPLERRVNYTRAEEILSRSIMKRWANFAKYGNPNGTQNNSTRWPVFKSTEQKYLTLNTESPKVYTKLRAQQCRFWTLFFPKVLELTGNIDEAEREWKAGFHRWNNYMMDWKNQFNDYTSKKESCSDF
# [3] = biological target: Cholinesterase (Equus caballus) (UniProt P81908); assay: Inhibition of equine serum BCHE at 0.5 mM using butyrylthiocholine iodide as substrate preincubated for 10 mins followed by substrate addition measured after 30 mins by Ellman's method relative to control
# Chain of Cholinesterase (Equus caballus) (P81908 whole entry): as above
Compound,Ratio IC50 [1],IC50 (Acetylcholinesterase),inhibition [2],IC50 (Cholinesterase),inhibition [3]
COc1ccc(C(=O)NNC(=O)c2ccc3c(c2)COC3(CCCN(C)C)c2ccc(F)cc2)cc1 (stereo unspecified),0.63,124 µM,76.4%,196 µM,72.2%
CN(C)CCCC1(c2ccc(F)cc2)OCc2cc(C(=O)NNC(=O)c3ccccc3[N+](=O)[O-])ccc21 (stereo unspecified),3.35,256 µM,70.3%,76.3 µM,84.1%
CN(C)CCCC1(c2ccc(F)cc2)OCc2cc(C(=O)NNC(=O)c3ccc(F)cc3)ccc21 (stereo unspecified),0.63,112 µM,86.6%,179 µM,74.6%
COc1cc(C(=O)NNC(=O)c2ccc3c(c2)COC3(CCCN(C)C)c2ccc(F)cc2)ccc1O (stereo unspecified),1.45,112 µM,81.3%,76.9 µM,84.1%
CN(C)CCCC1(c2ccc(F)cc2)OCc2cc(C(=O)NNC(=O)c3cccc(I)c3)ccc21 (stereo unspecified),1.81,127 µM,83.7%,70.2 µM,85.4%
CN(C)CCCC1(c2ccc(F)cc2)OCc2cc(C(=O)NNC(=O)c3ccc(I)cc3)ccc21 (stereo unspecified),35.7,210 µM,76.4%,5.88 µM,85.5%
CN(C)CCCC1(c2ccc(F)cc2)OCc2cc(C(=O)NNC(=O)c3cccc(Br)c3)ccc21 (stereo unspecified),0.88,115 µM,80.1%,130 µM,88.8%
CN(C)CCCC1(c2ccc(F)cc2)OCc2cc(C(=O)NNC(=O)c3cccc(F)c3)ccc21 (stereo unspecified),0.76,141 µM,77.1%,185 µM,73.3%
CN(C)CCCC1(c2ccc(F)cc2)OCc2cc(C(=O)NNC(=O)c3ccccc3Cl)ccc21 (stereo unspecified),1.67,116 µM,81.4%,69.3 µM,85.4%
Cc1cccc(C(=O)NNC(=O)c2ccc3c(c2)COC3(CCCN(C)C)c2ccc(F)cc2)c1 (stereo unspecified),1.32,117 µM,82.6%,88.7 µM,85.7%
CN(C)CCCC1(c2ccc(F)cc2)OCc2cc(C(=O)NNC(=O)c3ccc([N+](=O)[O-])cc3)ccc21 (stereo unspecified),0.74,125 µM,75.8%,169 µM,74.6%
CN(C)CCCC1(c2ccc(F)cc2)OCc2cc(C(=O)NNC(=O)c3ccccc3)ccc21 (stereo unspecified),3.53,268 µM,69.8%,75.8 µM,81.5%
CN(C)CCCC1(c2ccc(F)cc2)OCc2cc(C(=O)NNC(=O)c3ccccc3Br)ccc21 (stereo unspecified),3.7,7.81 µM,85.2%,2.11 µM,84.1%
CNC(=O)Oc1ccc2c(c1)[C@]1(C)CCN(C)[C@@H]1N2C,,,,,82.8%
CN(C)CCCC1(c2ccc(F)cc2)OCc2cc(C(=O)NNC(=O)c3ccc(Br)cc3)ccc21 (stereo unspecified),0.62,118 µM,78.3%,190 µM,76.2%
CN(C)CCCC1(c2ccc(F)cc2)OCc2cc(C(=O)NNC(=O)c3cccc(O)c3)ccc21 (stereo unspecified),1.52,197 µM,64.4%,129 µM,88.2%
CN(C)CCCC1(c2ccc(F)cc2)OCc2cc(C(=O)NNC(=O)c3ccc(N)cc3)ccc21 (stereo unspecified),21.6,129 µM,83.2%,5.98 µM,85.5%
CN(C)CCCC1(c2ccc(F)cc2)OCc2cc(C(=O)NNC(=O)c3ccc(Cl)cc3)ccc21 (stereo unspecified),0.04,6.71 µM,86.1%,138 µM,78.4%
CN(C)CCCC1(c2ccc(F)cc2)OCc2cc(C(=O)NNC(=O)c3ccc(O)cc3)ccc21 (stereo unspecified),0.61,117 µM,84.6%,192 µM,73.2%
CN(C)CCCC1(c2ccc(F)cc2)OCc2cc(C(=O)NNC(=O)c3cccc([N+](=O)[O-])c3)ccc21 (stereo unspecified),0.74,137 µM,79.3%,185 µM,73.3%
CN(C)CCCC1(c2ccc(F)cc2)OCc2cc(C(=O)NNC(=O)c3cccc(Cl)c3)ccc21 (stereo unspecified),0.46,1.8 µM,93.5%,3.9 µM,84%
Cc1ccccc1C(=O)NNC(=O)c1ccc2c(c1)COC2(CCCN(C)C)c1ccc(F)cc1 (stereo unspecified),0.49,115 µM,83.4%,233 µM,72.4%
CN(C)CCCC1(c2ccc(F)cc2)OCc2cc(C(=O)NNC(=O)c3ccccc3I)ccc21 (stereo unspecified),1.87,146 µM,81.8%,77.9 µM,82.6%
CN(C)CCCC1(c2ccc(F)cc2)OCc2cc(C(=O)NNC(=O)c3ccccc3O)ccc21 (stereo unspecified),3.32,296 µM,59%,89 µM,85.7%
COc1ccccc1C(=O)NNC(=O)c1ccc2c(c1)COC2(CCCN(C)C)c1ccc(F)cc1 (stereo unspecified),0.35,45.8 µM,88.6%,130 µM,88.8%
Cc1ccc(C(=O)NNC(=O)c2ccc3c(c2)COC3(CCCN(C)C)c2ccc(F)cc2)cc1 (stereo unspecified),1.69,268 µM,69.7%,158 µM,76.6%
CN(C)CCCC1(c2ccc(F)cc2)OCc2cc(C(=O)NNC(=O)c3ccccc3F)ccc21 (stereo unspecified),1.55,111 µM,84.4%,71.4 µM,85.5%
CN(C)CCCC1(c2ccc(F)cc2)OCc2cc(C(=O)NNC(=O)c3ccccc3N)ccc21 (stereo unspecified),1.72,118 µM,84.5%,68.2 µM,84.4%
